# According to patent US8680145B1, “Compositions and methods for treatment of fear of medical procedures” (priority 2013, dated 2014):
# How the values were obtained:
# [1] = cited from earlier work
# [2] = chronic administration (Kellstein 1990); cited from earlier work
# rats = details: opiate-naïve and morphine-tolerant rats (Watkins 1985); cited from earlier work
# human patients = details: cited from earlier work
# [3] = test system: subject with dental phobia; test: Routine dental checkup (cleaning and examination) of a subject with dental phobia after proglumide (Example 1); assay type: in vivo, human
# From the text: Proglumide was obtained from commercial suppliers and/or pharmacies, and loaded into capsules. A subject with dental phobia, who had not been to a dentist in many years, agreed to undergo a routine dental checkup visit (cleaning and examination), and to take proglumide prior to the dental visit. […] Furthermore, the subject was willing to return for a follow-up visit within one week in order to replace an aged filling, a procedure that was not deemed urgent and easily could have been delayed.
# [4] = test system: subject with dental phobia; test: Replacement of an aged metal filling in the same subject after proglumide (Example 2); assay type: in vivo, human; details: capsule 200 mg proglumide 90 minutes prior; local anesthetic given by dentist
# Experimental: Proglumide was obtained from commercial suppliers and/or pharmacies, and loaded into capsules. The same subject as in Example 1 returned to the dentist five days after the dental checkup of Example 1 in order to replace an aged metal filling. Again, proglumide was administered to the subject in advance of the appointment. […] The dentist administered a local anesthetic (e.g., lidocaine) painkiller as part of the procedure for replacing the filling. The residual discomfort following the procedure, including after the numbness wore off, was mild.
compound,measurement,setting,value
"CCCN(CCC)C(=O)C(CCC(=O)O)NC(=O)c1ccccc1 (stereo not shown) [proglumide, Proglumide]",Placebo analgesia,[1]; Benedetti 1995,enhance
same,Nocebo hyperalgesia,[1]; Benedetti 2006,block
same,Efficacy as a long-term adjunct to opiate treatment for chronic pain,[2],ineffective
same,Morphine analgesia,rats,potentiates
same,"Augmentation of morphine analgesia, treatment vs control groups",human patients; cancer pain management (Bernstein 1998) and post-operative patients (Lehmann 1989),no difference
same,Analgesic efficacy of morphine,human patients; human patients with chronic pain (McCleane 1998),enhances
same,Total discomfort,[3]; capsule 100 mg proglumide ninety minutes prior to dental appointment,low enough that the subject would be willing to return to a regular dental checkup schedule
same,Subject-reported pain during calculus removal,"[3]; capsule 100 mg proglumide ninety minutes prior to dental appointment, relative to previous dental visits without proglumide",substantially reduced
same,"Post-checkup pain (tender gums, sensitivity while chewing)","[3]; capsule 100 mg proglumide ninety minutes prior, relative to after previous dental checkups",significantly reduced
same,"Residual discomfort following the procedure, including after the numbness wore off",[4],mild
